Source: patent US9416347B2, “Method of treating bacterial contamination in a microalgae culture with pH shock” (Heliae Development LLC, priority 2014, dated 2016)
Read-outs that look alike come from different tables or passages of the source.

Tests used:
Chlorella sp. [1] = tested on: Chlorella sp.
Experimental: 100 mL volume cultures were prepared in 250 mL flasks, and cultured at a temperature of 25° C., a shaking frequency of 100 rpm, and a light intensity of 100 μM photon/m^2 s for 7 days (168 hours). The cultures were inoculated into two times BG-11 culture media at a cell density of 1.12 g/L. The different treatments of sodium acetate consisted of concentrations of 0, 2.5, 5, 7.5, 10, 20, 30, and 40 g/L. Samples were taken every 24 hours to measure the cell dry weights (g/L) of the cultures.

[2] = tested on: live bacteria in mixotrophic culture of Chlorella; settings: for Total live bacteria count: pH lowered to 3.5 with hydrochloric acid
Experimental: The 2 L sample was split into equal 1 L cultures in flasks, and incubated at 25° C. and 100 rpm (shaking) for 24 hours to allow metabolization of any residual acetate in the cultures. The two cultures were then blended together and then separated into equal 1 L cultures to ensure homogeneity in the two cultures. […] Samples were taken from both cultures to quantify the initial live bacteria count and subsequent counts using aerobic colony forming units (CFU) obtained from plate counts utilizing Petrifilm available from 3M (St. Paul, Minn.).

[3] = in water; cited from earlier work
Chlorella sp. [4] = settings: pH lowered from about 7.5 to 3.5 for 15 minutes, raised back with 5M NaOH
Experimental: The first 400 ml culture was maintained as an untreated control at a pH of about 7.5. […] The pH treatments were applied directly to the cultures, without previous concentration of the microalgae or subsequent dilution through inoculation into fresh culture media. All cultures were incubated with shaking at 100 rpm in 5% carbon dioxide and 25° C. […] 100 μM photon/m^2 s of light was also provided to create mixotrophic growth conditions. The cultures were monitored for 4 days (96 hours with dry weight samples taken at 0, 48, and 96 hours). Live bacteria count samples were taken at 0 and 48 hours, and quantified using aerobic colony forming units (CFU) obtained from plate counts utilizing Petrifilm available from 3M (St. Paul, Minn.). A bacteria to microalgae ratio was also quantified using guava flow cytometry.

Chlorella sp. [5] = settings: culture at 1,029 mg/L acetate, pH 3.5 for 15 minutes, returned to 7.5 with 2 M NaOH
Experimental: The pH treated culture samples were maintained at the culture pH of 3.5 for 15 minutes before returning the culture pH to 7.5 by adding 2 M NaOH.
The pH treatment was applied directly into the culture, without previous concentration or subsequent dilution through inoculation into a fresh media. All cultures were incubated with shaking at 100 rpm in 5% carbon dioxide and 25° C. […] 100 μM photon/m^2 s of light was also provided to create mixotrophic growth conditions. The cultures were monitored for 4 days (96 hours with dry weight samples taken at 0, 48, and 96 hours). Residual acetate analyses were carried at the end of the experiment.

In the case of `CC(=O)[O-].[Na+]` [sodium acetate], the “Growth of Chlorella” value (Chlorella sp. [1]; 2.5 g/L sodium acetate) is reported as 0.620 g/L day, the “Cell dry weights of treatments by Concentration of Sodium Acetate” value (from here on “Cell dry weights of treatments”) (Chlorella sp. [1]; 2.5 g/L sodium acetate, 0 h) is reported as 0.12 g/L and the “Cell dry weights of treatments” value (Chlorella sp. [1]; 2.5 g/L sodium acetate, 24 h) is reported as 0.23 g/L. The “Cell dry weights of treatments” value (Chlorella sp. [1]; 2.5 g/L sodium acetate, 48 h) was 0.85 g/L, the “Cell dry weights of treatments” value (Chlorella sp. [1]; 2.5 g/L sodium acetate, 72 h) was 1.10 g/L and the “Cell dry weights of treatments” value (Chlorella sp. [1]; 2.5 g/L sodium acetate, 144 h) was 2.72 g/L. For the same molecule, the “Cell dry weights of treatments” value (Chlorella sp. [1]; 2.5 g/L sodium acetate, 168 h) was 3.23 g/L, the “Growth of Chlorella” value (Chlorella sp. [1]; 5 g/L sodium acetate) was 0.065 g/L day and the “Cell dry weights of treatments” value (Chlorella sp. [1]; 5 g/L sodium acetate, 0 h) was 0.12 g/L. For the same molecule, the “Cell dry weights of treatments” value (Chlorella sp. [1]; 5 g/L sodium acetate, 24 h) was 0.19 g/L, the “Cell dry weights of treatments” value (Chlorella sp. [1]; 5 g/L sodium acetate, 48 h) was 0.25 g/L and the “Cell dry weights of treatments” value (Chlorella sp. [1]; 5 g/L sodium acetate, 72 h) was 0.55 g/L. For the same molecule, the “Cell dry weights of treatments” value (Chlorella sp. [1]; 5 g/L sodium acetate, 144 h) was 1.89 g/L, the “Cell dry weights of treatments” value (Chlorella sp. [1]; 5 g/L sodium acetate, 168 h) was 2.41 g/L and the “Cell dry weights of treatments” value (Chlorella sp. [1]; 7.5 g/L sodium acetate, 0 h) was 0.12 g/L. The “Cell dry weights of treatments” value (Chlorella sp. [1]; 7.5 g/L sodium acetate, 24 h) was 0.17 g/L, the “Cell dry weights of treatments” value (Chlorella sp. [1]; 7.5 g/L sodium acetate, 48 h) was 0.15 g/L and the “Cell dry weights of treatments” value (Chlorella sp. [1]; 7.5 g/L sodium acetate, 72 h) was 0.13 g/L. For the same molecule, the “Cell dry weights of treatments” value (Chlorella sp. [1]; 7.5 g/L sodium acetate, 144 h) was 0.10 g/L, the “Cell dry weights of treatments” value (Chlorella sp. [1]; 7.5 g/L sodium acetate, 168 h) was 0.07 g/L and the “Cell dry weights of treatments” value (Chlorella sp. [1]; 10 g/L sodium acetate, 0 h) was 0.12 g/L. For the same molecule, the “Cell dry weights of treatments” value (Chlorella sp. [1]; 10 g/L sodium acetate, 24 h) was 0.13 g/L, the “Cell dry weights of treatments” value (Chlorella sp. [1]; 10 g/L sodium acetate, 48 h) was 0.16 g/L and the “Cell dry weights of treatments” value (Chlorella sp. [1]; 10 g/L sodium acetate, 72 h) was 0.11 g/L. For the same molecule, the “Cell dry weights of treatments” value (Chlorella sp. [1]; 10 g/L sodium acetate, 144 h) was 0.09 g/L, the “Cell dry weights of treatments” value (Chlorella sp. [1]; 10 g/L sodium acetate, 168 h) was 0.00 g/L and the “Cell dry weights of treatments” value (Chlorella sp. [1]; 20 g/L sodium acetate, 0 h) was 0.12 g/L. For the same molecule, the “Cell dry weights of treatments” value (Chlorella sp. [1]; 20 g/L sodium acetate, 24 h) was 0.16 g/L, the “Cell dry weights of treatments” value (Chlorella sp. [1]; 20 g/L sodium acetate, 48 h) was 0.13 g/L and the “Cell dry weights of treatments” value (Chlorella sp. [1]; 20 g/L sodium acetate, 72 h) was 0.12 g/L. The “Cell dry weights of treatments” value (Chlorella sp. [1]; 20 g/L sodium acetate, 144 h) was 0.07 g/L, the “Cell dry weights of treatments” value (Chlorella sp. [1]; 20 g/L sodium acetate, 168 h) was 0.00 g/L and the “Cell dry weights of treatments” value (Chlorella sp. [1]; 30 g/L sodium acetate, 0 h) was 0.12 g/L. The “Cell dry weights of treatments” value (Chlorella sp. [1]; 30 g/L sodium acetate, 24 h) was 0.14 g/L, the “Cell dry weights of treatments” value (Chlorella sp. [1]; 30 g/L sodium acetate, 48 h) was 0.11 g/L and the “Cell dry weights of treatments” value (Chlorella sp. [1]; 30 g/L sodium acetate, 72 h) was 0.09 g/L. For the same molecule, the “Cell dry weights of treatments” value (Chlorella sp. [1]; 30 g/L sodium acetate, 144 h) was 0.08 g/L, the “Cell dry weights of treatments” value (Chlorella sp. [1]; 30 g/L sodium acetate, 168 h) was 0.00 g/L and the “Cell dry weights of treatments” value (Chlorella sp. [1]; 40 g/L sodium acetate, 0 h) was 0.12 g/L. The “Cell dry weights of treatments” value (Chlorella sp. [1]; 40 g/L sodium acetate, 24 h) was 0.11 g/L, the “Cell dry weights of treatments” value (Chlorella sp. [1]; 40 g/L sodium acetate, 48 h) was 0.09 g/L and the “Cell dry weights of treatments” value (Chlorella sp. [1]; 40 g/L sodium acetate, 72 h) was 0.10 g/L. For the same molecule, the “Cell dry weights of treatments” value (Chlorella sp. [1]; 40 g/L sodium acetate, 144 h) was 0.09 g/L, the “Cell dry weights of treatments” value (Chlorella sp. [1]; 40 g/L sodium acetate, 168 h) was 0.00 g/L and the “tolerance limit for this strain of Chlorella” value (Chlorella sp. [1]; as restated in Example 10) was 7500 mg/L. The “Growth of Chlorella” value (Chlorella sp. [1]; concentrations of 7.5 g/L and higher) was “did not show any growth”, the “acetate concentration tolerance for Chlorella” value (Chlorella sp. [1]; mixotrophic flask culture, 7 days) was “approximately 7.5 g/L” and the “live bacteria counts (below detection)” value ([2]; 2.5 g/L sodium acetate, pH 3.5 with HCl, after 60 minutes) was < 1,000 CFU/ml. For the same molecule, the live bacteria ([2]; 2.5 g/L sodium acetate, pH 3.5 with HCl, after 180 minutes) was “no measurable live bacterium”, the “Total live bacteria count” value ([2]; 2.5 g/L sodium acetate, 0 min) was 5.00E+06 CFU and the “Total live bacteria count” value ([2]; 2.5 g/L sodium acetate, 5 min) was 8.00E+04 CFU. For the same molecule, the “Total live bacteria count” value ([2]; 2.5 g/L sodium acetate, 15 min) was 4.00E+04 CFU, the “Total live bacteria count” value ([2]; 2.5 g/L sodium acetate, 30 min) was “none detected” and the “Total live bacteria count” value ([2]; 2.5 g/L sodium acetate, 60 min) was 1.00E+03 CFU. For the same molecule, the “Total live bacteria count” value ([2]; 2.5 g/L sodium acetate, 180 min) was 1.00E+03 CFU and the “reduction in live bacteria” value ([2]; sodium acetate present and treated with second acid, after 60 minutes) was 3.5 order of magnitude.

In the case of `O=C(O)CC(O)C(=O)O` (centres unmarked) [malic acid], the pKa [3] is given as “about 3.4”.

For `CC(=O)C(=O)O` [pyruvic acid], the pKa [3] is listed as “about 2.5”.

For `CCCCCCCCCCCCCCCC(=O)O` [palmitic acid], the pKa [3] is given as “about 4.7”.

With `CC(=O)O` [Acetic acid, acetic acid] the cell dry weight (Chlorella sp. [4]; 0 h) was 0.76 ± 0.00 g/L, the cell dry weight (Chlorella sp. [4]; 48 h) was 1.73 ± 0.04 g/L and the cell dry weight (Chlorella sp. [4]; 96 h) was 3.46 ± 0.09 g/L. The “Cell Dry Weight” value (Chlorella sp. [5]; 0 h) was 0.80 ± 0.02 g/L, the “Cell Dry Weight” value (Chlorella sp. [5]; 48 h) was 0.78 ± 0.06 g/L and the “Cell Dry Weight” value (Chlorella sp. [5]; 96 h) was 0.89 ± 0.01 g/L.
